According to US9375000B2, “Pesticidal arylpyrrolidines” (Bayer Intellectual Property GmbH, priority 2011, dated 2016):
“And” between values parts separate entries of the source, which are not always exact repeats. Equal values may be shown once.

Key:
Format in all cases: in vivo
[1] = system: Tobacco Cutworm (Spodoptera litura) Larvae; assay: Tobacco cutworm (Spodoptera litura) larvae, sweet potato leaf dip test; details: dead larvae after 7 days
Experimental: (§1) Unless not mentioned otherwise, the test solutions were prepared as follows:
(§2) Solvent: 3 parts by weight Dimethylformamide
(§3) Emulsifier: 1 part by weight Polyoxyethylene alkyl phenyl ether
(§4) In order to make an appropriate formulation of an active compound, 1 part by weight of the active compound is mixed with the above mentioned amount of solvent and emulsifier and the mixture is diluted with water to a prescribed concentration. Ammonium salt or ammonium salt and penetration enhancer in a dosage of 1000 ppm are added to the desired concentration if necessary.
Leaves of sweet potato were immersed in the test solution at the appropriate concentration, and the leaves were dried in air. The leaves were then placed in a petri dish having a diameter of 9 cm, and ten Spodoptera litura at third instar larvae were released therein. The petri dishes were placed in a temperature-controlled chamber at 25° C. After 2 days and 4 days more sweet potato leaves were added. After 7 days, the number of dead larvae was counted to calculate the insecticidal activity. An insecticidal activity of 100% means that all larvae were killed, whereas an insecticidal activity of 0% means that no larva was killed. In the current test, the results of two petri dishes for each treatment were averaged.

[2] = system: Two-Spotted Spider Mite (Tetranychus urticae); assay: Two-spotted spider mite (Tetranychus urticae) spray test on kidney bean; details: after 7 days
How it was run: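 Kidney bean plants at the two-leaf stage carried 50-100 adult mites and were sprayed one day later with compound in DMF/polyoxyethylene alkyl phenyl ether diluted in water. Ammonium salt and penetration enhancer at 1000 ppm were added if needed. Acaricidal activity (% mites killed) was scored after 7 days in a greenhouse.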

[3] = system: Thrips palmi; assay: Thrips palmi spray test (THRIPL); details: after 6 days
Experimental: as §1, §2, §3, §4
The compound solutions are sprayed to a cucumber seedling (Cucumis sativus). After drying, the treated plant is placed in a plastic stand. About 100 thrips-eggs (Thrips palmi) on a piece of filter paper are attached to the plant and covered with a cage to keep 100% humidity. The plant is kept in a room at 23° C. After 6 days activity in % is evaluated by feeding damage degree. An insecticidal activity of 100 means that there was no feeding damage, whereas an insecticidal activity of 0% means that there is no difference to the untreated control.

[4] = system: Cucurbit Leaf Beetle (Aulacophora femoralis); assay: Cucurbit leaf beetle (Aulacophora femoralis) cucumber leaf dip test; details: after 7 days
How it was run: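 Cucumber leaves dipped in compound formulated with DMF and polyoxyethylene alkyl phenyl ether, diluted in water, with ammonium salt or ammonium salt plus penetration enhancer at 1000 ppm added if necessary; dried leaves placed on sterilized soil with five second-instar larvae. Kept at 25° C; larval mortality counted after 7 days.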

[5] = system: Musca domestica; assay: Test against Musca domestica; details: application rate 100 ppm; after 2 days
Experimental: (§5) Solvent: dimethyl sulfoxide
To produce a suitable preparation of active compound, 10 mg of active compound are dissolved in 0.5 ml solvent, and the concentrate is diluted with water to the desired concentration. Prior to the assay, a piece of kitchen sponge is soaked with a mixture of sugar and compound solution and placed into a container. 10 adults (Musca domestica) are placed into the container and closed with a perforated lid. After 2 days mortality in % is determined. 100% means that all the flies have been killed; 0% means that none of the flies have been killed.

[6] = system: Larvae of Spodoptera litura; assay: Larvae of Spodoptera litura, method using artificial feeds; details: artificial feed, after 7 days
How it was run: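 Compound formulated in dimethylformamide with polyoxyethylene alkyl phenyl ether emulsifier, water-diluted and poured onto artificial diet. Five 3rd-instar Spodoptera litura larvae per cup, held at 25° C and 50-60% humidity. Mortality after 7 days expressed as pesticidal ratio.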

[7] = system: adult engorged female Boophilus microplus ticks; assay: Test against Boophilus microplus (dip); details: dip, after 7 days
Experimental: as §5
To produce a suitable preparation of active compound, 10 mg of active compound are dissolved in 0.5 ml solvent, and the concentrate is diluted with water to the desired concentration. Eight to ten adult engorged female Boophilus microplus ticks are placed in perforated plastic beakers and immersed in aqueous compound solution for one minute. Ticks are transferred to a filter paper in a plastic tray. Egg deposition of fertile eggs is monitored after. After 7 days mortality in % is determined. 100% means that all the ticks have been killed; 0% means that none of the ticks have been killed.

[8] = system: Ctenocephalides felis; assay: Test against Ctenocephalides felis (CTECFE), blood feeding; details: application rate 100 ppm in cattle blood; after 2 days
Experimental: as §5
To produce a suitable preparation of active compound, 10 mg of active compound are dissolved in 0.5 ml solvent, and the concentrate is diluted with cattle blood to the desired concentration. Approximately 20 adult unfed (Ctenocepahlides felis) are placed in flea chambers. The blood chamber, sealed with parafilm on the bottom, are filled with cattle blood supplied with compound solution and placed on top of the flea chamber, so that the fleas are able to suck the blood. The blood chamber is heated to 37° C. whereas the flea chamber is kept at room temperature.
After 2 days mortality in % is determined. 100% means that all the fleas have been killed; 0% means that none of the fleas have been killed.

[9] = active compound concentration 4 ppm
[10] = active compound concentration 20 ppm
[11] = active compound concentration 100 ppm

Structure (SMILES) | insecticidal activity [1, 9] [%] | acaricidal activity [2, 10] [%] | insecticidal activity [4, 10] [%] | acaricidal activity [2, 9] [%] | insecticidal activity (by feeding damage degree) [3, 10] [%] | insecticidal activity (pesticidal ratio) [6, 10] [%] | also measured
O=C(NCc1cnc(N2CCC(c3cc(Cl)c(Cl)c(Cl)c3)(C(F)(F)F)C2O)cc1C(F)(F)F)C1CC1 (centres unmarked) [A5-16] | 100 | 100 | 100 | – | – | – | insecticidal activity (by feeding damage degree) [3, 11]: 100%
CCC(=O)NCc1ccc(N2CCC(c3cc(Cl)c(Cl)c(Cl)c3)(C(F)(F)F)C2O)nc1Cl (centres unmarked) [A3-101] | 100 | – | 100 | 100 | 98 | – | –
O=C(NCc1cnc(N2CCC(c3cc(Cl)cc(Cl)c3)(C(F)(F)F)C2O)nc1C(F)(F)F)C1CC1 (centres unmarked) [A4-5] | 100 | – | 100 | 100 | 90 | – | –
O=C(CC(F)(F)F)NCc1cnc(N2CCC(c3cc(Cl)cc(Cl)c3)(C(F)(F)F)C2O)nc1C(F)(F)F (centres unmarked) [A4-7] | 100 | – | 100 | 100 | 90 | – | –
O=C(NCc1ccc(N2CCC(c3cc(F)cc(Cl)c3)(C(F)(F)F)C2O)cc1C(F)(F)F)C1CC1 (centres unmarked) [A1-242] | 100 | – | 100 | 100 | 90 | – | –
O=C(NCc1ccc(N2CCC(c3cc(Cl)c(Cl)c(Cl)c3)(C(F)(F)F)C2O)cc1I)C1CC1 (mixture of isomers) [A1-176] | – | 100 | 100 | 100 | 90 | 100 | activity (mortality) [5]: 80%; insecticidal activity (pesticidal ratio) [6, 9]: 100%
CCC(=O)NCc1ccc(N2CCC(c3cc(C(F)(F)F)cc(C(F)(F)F)c3)(C(F)(F)F)C2O)cc1C(F)(F)F (mixture of isomers) [A1-57] | – | – | – | 100 | 100 | – | activity (mortality) ([7]; application rate 100 ppm): 90%; insecticidal activity [4, 9]: 100%; insecticidal activity (pesticidal ratio) [6, 9]: 100%
CC(=O)NCc1cnc(N2CCC(c3cc(Cl)c(Cl)c(Cl)c3)(C(F)(F)F)C2O)nc1C(F)(F)F (centres unmarked) [A4-12] | 100 | – | – | 100 | 90 | – | –
CCC(=O)NCc1cnc(N2CCC(c3cc(Cl)c(Cl)c(Cl)c3)(C(F)(F)F)C2O)cc1C(F)(F)F (centres unmarked) [A5-13] | 100 | 100 | 100 | – | – | – | acaricidal activity [2, 11]: 98%; insecticidal activity (by feeding damage degree) [3, 11]: 100% and 90%; insecticidal activity (pesticidal ratio) [6, 9]: 100%
CCCC(=O)NCc1ccc(N2CCC(c3cc(Cl)c(Cl)c(Cl)c3)(C(F)(F)F)C2O)nc1C(F)(F)F (centres unmarked) [A3-14] | – | 100 | 100 | 100 | – | 100 | activity (mortality) [8]: 95%; insecticidal activity [4, 9]: 100%; insecticidal activity (pesticidal ratio) [6, 9]: 100%
CCC(=O)NCc1ccc(N2CCC(c3cc(Cl)c(Cl)c(Cl)c3)(C(F)(F)F)C2O)nc1Br (centres unmarked) [A3-112] | – | 100 | 100 | – | – | 100 | activity (mortality) [5]: 90%
O=C(CC(F)(F)F)NCc1ccc(N2CCC(c3cc(Cl)cc(Cl)c3)(C(F)(F)F)C2O)cc1Br (mixture of isomers) [A1-112] | 100 | – | 100 | 100 | 98 | – | –
O=C(CC(F)(F)F)NCc1cnc(N2CCC(c3cc(Cl)c(Cl)c(Cl)c3)(C(F)(F)F)C2O)cc1C(F)(F)F (centres unmarked) [A5-18] | 100 | 100 | 100 | – | – | – | activity (mortality) [8]: 90%; insecticidal activity (by feeding damage degree) [3, 11]: 100%
CS(=O)(=O)CC(=O)NCc1cnc(N2CCC(c3cc(Cl)c(Cl)c(Cl)c3)(C(F)(F)F)C2O)cc1C(F)(F)F (centres unmarked) [A5-22] | 100 | 100 | 100 | – | – | – | insecticidal activity (by feeding damage degree) [3, 11]: 98%
C[S+]([O-])CC(=O)NCc1ccc(N2CCC(c3cc(C(F)(F)F)cc(C(F)(F)F)c3)(C(F)(F)F)C2O)cc1Cl (centres unmarked) [A1-32] | – | 100 | 100 | – | – | 100 | activity (mortality) ([7]; application rate 20 ppm): 95%
O=C(NCc1ccc(N2CCC(c3cc(Br)cc(Br)c3)(C(F)(F)F)C2O)cc1C(F)(F)F)C1CC1 (centres unmarked) [A1-253] | – | 100 | 100 | 100 | 90 | 100 | activity (mortality) [5]: 90%; insecticidal activity [4, 9]: 100%; insecticidal activity (pesticidal ratio) [6, 9]: 100%
CCC(=O)NCc1ccc(N2CCC(c3cc(Cl)c(Cl)c(Cl)c3)(C(F)(F)F)C2O)cc1 (centres unmarked) [A1-384] | 100 | – | 100 | 98 | 90 | – | –
CS(=O)(=O)CC(=O)NCc1ccc(N2CCC(c3cc(C(F)(F)F)cc(C(F)(F)F)c3)(C(F)(F)F)C2O)nc1Br (mixture of isomers) [A3-165] | – | – | 100 | 90 | – | 100 | activity (mortality) ([7]; application rate 100 ppm): 90%; insecticidal activity [4, 9]: 100%; insecticidal activity (pesticidal ratio) [6, 9]: 100%
O=C(NCc1ccc(N2CCC(c3cc(Cl)cc(Cl)c3)(C(F)(F)F)C2O)cc1Br)C1CC1 (mixture of isomers) [A1-110] | 100 | – | 100 | 100 | 98 | – | activity (mortality) ([7]; application rate 100 ppm): 90%
O=C(NCc1ccc(N2CC(c3cc(C(F)(F)F)cc(C(F)(F)F)c3)(C(F)(F)F)CC2=O)nc1C(F)(F)F)C1CC1 (centres unmarked) [C3-27] | – | – | – | – | – | 100 | insecticidal activity [1, 10]: 100%; activity (mortality) [5]: 90%
CCC(=O)NCc1cnc(N2CCC(c3cc(Cl)c(F)c(Cl)c3F)(C(F)(F)F)C2O)nc1C(F)(F)F (centres unmarked) [A4-112] | 100 | – | 100 | 100 | 98 | – | –
O=C(NCc1ccc(N2CCC(c3cc(F)cc(Cl)c3)(C(F)(F)F)C2O)nc1C(F)(F)F)C1CC1 (mixture of isomers) [A3-170] | 100 | 100 | 100 | – | – | – | activity (mortality) [5]: 90%
CC(=O)NCc1ccc(N2CCC(c3cc(Cl)c(F)c(Cl)c3F)(C(F)(F)F)C2O)cc1C(F)(F)F (centres unmarked) [A1-282] | 100 | – | 100 | 100 | – | – | activity (mortality) ([7]; application rate 100 ppm): 95%
